# Data from patent publication US20190365710A1, “METHODS OF TREATING CANCER” (GlaxoSmithKline Intellectual Property Development Limited, priority 2016, published 2019).
# Read-outs that look alike come from different tables or passages of the source.
# Experiments:
# Breast cancer cell lines = test: 6-day growth-death assay (Cell Titer Glo); conditions: for IC50: Homo sapiens
# Experimental: Cell lines representing triple negative breast cancer (TNBC) are shown in orange; other subtypes are in blue.
# The growth of all cell lines was evaluated over time across a wide range of seeding densities to identify conditions that permitted proliferation throughout the entire 6-day assay. Cells were plated at the optimal seeding density and after overnight incubation, a 20-point 2-fold titration of compound was added and plates were incubated for 6 days. A replicate plate of cells was harvested at the time of compound addition to quantify the starting number of cells (To). Values obtained after the 6 day treatment were expressed as a function of the To value and plotted against compound concentration. The To value was normalized to 100% and represents the number of cells at the time of compound addition. The data were fit with a 4 parameter equation to generate a concentration response curve and the growth IC50 (gIC50) was determined. The gIC50 is the midpoint of the ‘growth window’, the difference between the number of cells at the time of compound addition (T0) and the number of cells after 6 days (DMSO control). The growth-death assay can be used to quantify the net population change, clearly defining cell death (cytotoxicity) as fewer cells compared to the number at the time of compound addition (T0).
# AML cell lines = test: 6-day growth-death assay (Cell Titer Glo); format: cell-based, human
# Toledo = test system: Toledo
# Experimental: (§1) FIG. 18: Propidium iodide FACS analysis of cell cycle in human lymphoma cell lines. […] Data represents the average±SEM of biological replicates, n=2.
# (§2) By day 7, an increase in the sub-G1 population was apparent at concentrations ≥100 nM.
# U2932 = conditions: only at this concentration
# Experimental: as §1, §2
# OCI-Ly1 = conditions: only at this concentration
# Experimental: as §1, §2
# PRMT9 = PRMT9 (Homo sapiens, UniProt Q6P2P2); test: PRMT family radioactive assay; format: biochemical; conditions: Type II; 60 minute SAM:Enzyme:Compound A preincubation
# PRMT9, sequence (Q6P2P2 whole entry): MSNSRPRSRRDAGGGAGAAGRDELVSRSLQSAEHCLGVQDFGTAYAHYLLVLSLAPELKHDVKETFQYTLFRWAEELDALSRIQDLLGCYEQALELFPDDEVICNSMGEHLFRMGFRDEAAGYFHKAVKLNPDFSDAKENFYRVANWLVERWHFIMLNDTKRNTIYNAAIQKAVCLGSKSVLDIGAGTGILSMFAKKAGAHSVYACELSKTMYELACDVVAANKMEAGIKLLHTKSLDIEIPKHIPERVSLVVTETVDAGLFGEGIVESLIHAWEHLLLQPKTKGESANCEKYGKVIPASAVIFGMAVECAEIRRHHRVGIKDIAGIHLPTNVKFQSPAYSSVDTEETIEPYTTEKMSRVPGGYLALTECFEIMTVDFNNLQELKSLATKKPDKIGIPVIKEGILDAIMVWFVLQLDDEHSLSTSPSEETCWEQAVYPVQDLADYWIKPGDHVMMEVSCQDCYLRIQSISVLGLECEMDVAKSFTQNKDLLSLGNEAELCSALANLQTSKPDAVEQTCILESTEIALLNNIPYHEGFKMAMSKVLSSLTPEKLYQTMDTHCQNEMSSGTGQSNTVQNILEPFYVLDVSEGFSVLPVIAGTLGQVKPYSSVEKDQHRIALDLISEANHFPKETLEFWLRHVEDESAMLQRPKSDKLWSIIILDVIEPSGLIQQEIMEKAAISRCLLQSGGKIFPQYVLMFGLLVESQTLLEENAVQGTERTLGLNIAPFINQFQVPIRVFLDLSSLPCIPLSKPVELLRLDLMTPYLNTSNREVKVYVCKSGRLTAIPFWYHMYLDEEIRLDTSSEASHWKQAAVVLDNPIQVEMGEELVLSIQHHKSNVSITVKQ
# Kidney cancer cell lines = test: 6-day growth-death assay (Cell Titer Glo); format: cell-based, human; conditions: 10 cell lines
# [1] = test system: arginine methylation in Toledo DLBCL cells; test: Western analysis of arginine methylation marks (ADMA, SDMA, MMA); format: cell-based, human
# Excerpt: (B) Representative western blots of arginine methylation marks. Regions quantified are denoted by black bars on the right of the gel.
# (B) Representative western blots of arginine methylation marks. Regions quantified for (A) are denoted by black bars on the side of the gel.
# As predicted, ADMA methylation decreased while MMA increased upon compound exposure (FIG. 12). […] Given the detection of numerous substrates with varying kinetics, and variability of ADMA levels among DMSO-treated samples, both the full lane and a prominent 45 kDa band were characterized to assess ADMA. Increases in MMA were apparent by 24 hours and near maximal by 48 hours while decreases in the 45 kDa ADMA band required 72-96 hours to achieve maximal effect. Increases in SDMA were apparent after 48 hours of compound exposure and continued to increase through 120 hours, consistent with the potential switch from conversion of MMA to ADMA by Type I PRMTs to SDMA by Type II PRMTs (FIG. 12).
# Cells were then washed, cultured in Compound A-free media, samples were collected daily through 120 hours, and arginine methylation levels were examined by western analysis. […] SDMA appeared to continue to increase even after 6 hours of washout. This is consistent with the continued increase observed through 120 hours without any obvious plateau (FIG. 12) coupled with the durable increase in MMA that has not yet returned to baseline after washout. Durability of each modification generally reflected the kinetics of arginine methylation changes brought about by Compound A, with MMA being the most rapid.
# [2] = 0.4 μM Compound A for 72 hours then washout
smiles,measurement,setting,value
CCOCC1(COCC)CCC(c2n[nH]cc2CN(C)CCNC)CC1 [Compound A],% Cytotoxic (cell lines with negative Ymin−T0),"Breast cancer cell lines; 6-day, Breast, 29 cell lines",10%
same,% gIC100 < 2 μM (of cell lines),"Breast cancer cell lines; 6-day, Breast, 29 cell lines",0%
same,Median gIC100,"Breast cancer cell lines; 6-day, Breast, 29 cell lines",29.36 µM
same,Median % Ymin − T0,"Breast cancer cell lines; Breast, MTAP High",174%
same,Median gIC100,"Breast cancer cell lines; Breast, MTAP High",29.4 µM
same,Median % Ymin − T0,"Breast cancer cell lines; Breast, MTAP Low",188%
same,IC50,"Breast cancer cell lines; 144 h, read-out: median gIC50, 6-day, TNBC cell lines",3.6 µM
same,IC50,"Breast cancer cell lines; 144 h, read-out: median gIC50, 6-day, non-TNBC cell lines",6.8 µM
same,IC50,"Breast cancer cell lines; read-out: Median gIC50, Breast, MTAP High",4.9 µM
same,IC50,"Breast cancer cell lines; read-out: Median gIC50, Breast, MTAP Low",10.2 µM
same,% Cytotoxic (cell lines with negative Ymin−T0),"AML cell lines; 6-day, AML, 10 cell lines",50%
same,% gIC100 < 2 μM (of cell lines),"AML cell lines; 6-day, AML, 10 cell lines",0%
same,Median gIC100,"AML cell lines; 6-day, AML, 10 cell lines",16.72 µM
same,number of cell lines in which cytotoxicity was induced,"AML cell lines; 6-day, of 10 AML cell lines",5
same,IC50,"AML cell lines; Homo sapiens, 144 h, read-out: Median gIC50",0.54 µM
same,Compound A concentrations giving accumulation of cells in sub-G1,Toledo; beginning after 3 days of treatment,≥ 1000 nM
same,Compound A concentrations giving increase in the sub-G1 population,Toledo; by day 7,≥ 100 nM
same,Compound A concentration at which sub-G1 effect was evident,U2932,10 µM
same,Compound A concentration at which sub-G1 effect was evident,OCI-Ly1,10 µM
same,inhibition of activity,PRMT9,failed to inhibit
same,% Cytotoxic (cell lines with negative Ymin−T0),Kidney cancer cell lines,0%
same,% gIC100 < 2 μM (of cell lines),Kidney cancer cell lines,0%
same,Median gIC100,Kidney cancer cell lines,29.35 µM
same,time after which increases in SDMA were apparent,[1]; 0.4 μM Compound A,48 h
same,time at which increases in MMA were apparent,[1]; 0.4 μM Compound A,≤ 24 h
same,time at which increases in MMA were near maximal,[1]; 0.4 μM Compound A,≤ 48 h
same,time required for maximal decrease in the 45 kDa ADMA band,[1]; 0.4 μM Compound A,72 to 96 h
same,time for ADMA to return to baseline after washout,[1]; [2],≤ 24 h
same,time for MMA to return to baseline after washout,[1]; [2],≤ 24 h
same,time for SDMA to return to baseline after washout,[1]; [2],≤ 96 h
